As a reminder, the MIC is the least concentration at which growth counts as inhibited. High values mean a need for much substance, low ones inhibition by little substance.

The test system of the assay is E. coli strain BL21. The conditions noted are these: BL21, 24 h.

Structures are written as SMILES. Where a SMILES comes first, the peptide text is derived from it.

`CC[C@H](C)[C@H](NC(=O)[C@H](CCCNC(=N)N)NC(=O)[C@H](CCCNC(=N)N)NC(=O)[C@H](CCC(N)=O)NC(=O)[C@H](Cc1c[nH]c2ccccc12)NC(=O)[C@H](Cc1ccccc1)NC(=O)CNC(=O)[C@@H]1CCCN1C(=O)[C@H](CO)NC(=O)CNC(=O)[C@H](CCCCN)NC(=O)[C@H](CC(C)C)NC(=O)[C@H](CO)NC(=O)[C@H](CCCCN)NC(=O)[C@H](CC(C)C)NC(=O)[C@@H](NC(=O)[C@H](CCC(=O)O)NC(=O)[C@H](CC(C)C)NC(=O)[C@H](CC(C)C)NC(=O)[C@H](CCCCN)NC(=O)[C@H](CCC(N)=O)NC(=O)[C@@H]1CCCN1C(=O)[C@H](CC(C)C)NC(=O)[C@H](CCCCN)NC(=O)[C@@H](N)CCCCN)[C@@H](C)CC)C(=O)N[C@@H](CCCNC(=N)N)C(=O)N[C@@H](CCCNC(=N)N)C(=O)N[C@@H](Cc1c[nH]c2ccccc12)C(=O)N[C@@H](CCCNC(=N)N)C(=O)N[C@@H](CCCNC(=N)N)C(=O)O` [UGK-21]: the MIC is 1.25 to 2.5 mM. To `CC[C@H](C)[C@H](NC(=O)[C@H](CC(N)=O)NC(=O)[C@H](CCCNC(=N)N)NC(=O)[C@H](CCC(N)=O)NC(=O)[C@H](Cc1c[nH]c2ccccc12)NC(=O)[C@H](CCC(N)=O)NC(=O)[C@@H](N)Cc1ccccc1)C(=O)N[C@@H](CCCNC(=N)N)C(=O)N[C@@H](CCCCN)C(=O)N[C@H](C(=O)N[C@@H](CCCNC(=N)N)C(=O)O)C(C)C` [Peptide 11P-2, FQWORNIRKVR, reference compound] (H-FQWQRNIRKVR-OH) belongs more than 20 mM; to `CC[C@H](C)[C@H](NC(=O)[C@H](CCCNC(=N)N)NC(=O)[C@H](CCCNC(=N)N)NC(=O)[C@H](CCC(N)=O)NC(=O)[C@H](Cc1c[nH]c2ccccc12)NC(=O)[C@H](Cc1ccccc1)NC(=O)CNC(=O)[C@@H]1CCCN1C(=O)[C@H](CO)NC(=O)CNC(=O)[C@H](CCC(=O)O)NC(=O)[C@H](CC(C)C)NC(=O)[C@H](CO)NC(=O)[C@H](CCCCN)NC(=O)[C@H](CC(C)C)NC(=O)[C@@H](NC(=O)[C@H](CCC(=O)O)NC(=O)[C@H](CC(C)C)NC(=O)[C@H](CC(C)C)NC(=O)[C@H](CCCCN)NC(=O)[C@H](CCC(=O)O)NC(=O)[C@@H]1CCCN1C(=O)[C@H](CC(C)C)NC(=O)[C@H](CCCCN)NC(=O)[C@@H](N)CCCCN)[C@@H](C)CC)C(=O)N[C@@H](CCCNC(=N)N)C(=O)N[C@@H](CCCNC(=N)N)C(=O)N[C@@H](Cc1c[nH]c2ccccc12)C(=O)N[C@@H](CCCNC(=N)N)C(=O)N[C@@H](CCCNC(=N)N)C(=O)O` [UGK-25] (H-KKLPEKLLEILKSLEGSPGFWQRRIRRWRR-OH; N-terminus and C-terminus assumed), 2.5 to 5 mM; to `CC[C@H](C)[C@H](NC(=O)[C@H](CCCCN)NC(=O)[C@H](CC(C)C)NC(=O)[C@@H](NC(=O)[C@H](CCCCN)NC(=O)[C@H](CCCCN)NC(=O)[C@@H](NC(=O)[C@H](CC(C)C)NC(=O)[C@H](CCCCN)NC(=O)[C@H](CCCCN)NC(=O)CNC(=O)[C@@H]1CCCN1C(=O)[C@H](CO)NC(=O)CNC(=O)[C@H](Cc1ccc(O)cc1)NC(=O)CNC(=O)[C@H](CO)NC(=O)CNC(=O)[C@H](CCCNC(=N)N)NC(=O)[C@H](CCCNC(=N)N)NC(=O)[C@H](Cc1c[nH]c2ccccc12)NC(=O)[C@H](CCCNC(=N)N)NC(=O)[C@H](CCCNC(=N)N)NC(=O)[C@@H](NC(=O)[C@H](CCCNC(=N)N)NC(=O)[C@H](CCCNC(=N)N)NC(=O)[C@H](CCC(N)=O)NC(=O)[C@H](Cc1c[nH]c2ccccc12)NC(=O)[C@@H](N)Cc1ccccc1)[C@@H](C)CC)[C@@H](C)CC)[C@@H](C)CC)C(=O)N[C@@H](CC(C)C)C(=O)O` [Peptide 30P-2] (H-FWQRRIRRWRRGSGYGSPGKKLIKKILKIL-OH; N-terminus and C-terminus assumed), 1.25 to 2.5 mM.

Turning to `CC(C)C[C@H](NC(=O)[C@H](CCC(N)=O)NC(=O)[C@H](CCC(=O)O)NC(=O)[C@H](CO)NC(=O)[C@H](CC(C)C)NC(=O)[C@H](CCCNC(=N)N)NC(=O)[C@@H]1CCCN1C(=O)[C@@H](N)CCCCN)C(=O)N[C@@H](CCC(N)=O)C(=O)N[C@@H](CCC(=O)O)C(=O)N[C@@H](CC(C)C)C(=O)N[C@H](C(=O)N[C@@H](CCCNC(=N)N)C(=O)N[C@@H](CCCNC(=N)N)C(=O)N[C@@H](CC(C)C)C(=O)N[C@@H](CC(C)C)C(=O)N[C@@H](CC(=O)O)C(=O)N[C@@H](CO)C(=O)N1CCC[C@H]1C(=O)N[C@@H](CC(C)C)C(=O)N[C@@H](CCC(=O)O)C(=O)N[C@@H](CCCNC(=N)N)C(=O)N[C@@H](CCCNC(=N)N)C(=O)N[C@@H](Cc1c[nH]c2ccccc12)C(=O)N[C@@H](Cc1c[nH]c2ccccc12)C(=O)N[C@@H](CCC(=O)O)C(=O)N[C@@H](Cc1c[nH]c2ccccc12)C(=O)N[C@@H](Cc1c[nH]c2ccccc12)C(=O)N[C@@H](CCCNC(=N)N)C(=O)N[C@@H](CCCNC(=N)N)C(=O)O)[C@@H](C)O` [UGK-33] (H-KPRLSEQLQELTRRLLDSPLERRWWEWWRR-OH; N-terminus and C-terminus assumed), the MIC is more than 20 mM. In the case of `CC[C@H](C)[C@H](N)C(=O)N[C@@H](CCC(=O)O)C(=O)N[C@@H](CCCNC(=N)N)C(=O)N[C@@H](CO)C(=O)N[C@H](C(=O)N[C@@H](CC(N)=O)C(=O)N[C@@H](CC(C)C)C(=O)N[C@@H](CC(=O)O)C(=O)N[C@@H](Cc1c[nH]c2ccccc12)C(=O)N[C@@H](Cc1ccc(O)cc1)C(=O)N[C@@H](CCCCN)C(=O)NCC(=O)N1CCC[C@H]1C(=O)N[C@H](C(=O)N[C@@H](CC(C)C)C(=O)N[C@@H](CC(C)C)C(=O)O)[C@@H](C)O)[C@@H](C)O` [Peptide 16P-1, reference compound] (H-IERSTNLDWYKGPTLL-OH; N-terminus and C-terminus assumed), the MIC was more than 20 mM. With `CC(C)C[C@H](NC(=O)[C@H](CO)NC(=O)[C@H](CCCCN)NC(=O)[C@H](CC(C)C)NC(=O)[C@H](CCCCN)NC(=O)[C@H](CCC(N)=O)NC(=O)[C@H](CC(C)C)NC(=O)[C@H](CC(C)C)NC(=O)[C@H](CCC(=O)O)NC(=O)[C@H](CCC(=O)O)NC(=O)[C@H](CC(C)C)NC(=O)[C@H](CCCNC(=N)N)NC(=O)[C@H](CCCCN)NC(=O)[C@@H]1CCCN1C(=O)[C@@H](N)CC(C)C)C(=O)N[C@@H](CCC(=O)O)C(=O)NCC(=O)N[C@@H](CO)C(=O)N[C@@H](CCCCN)C(=O)N[C@@H](C)C(=O)N[C@@H](Cc1c[nH]cn1)C(=O)N[C@@H](CCC(=O)O)C(=O)N[C@@H](CCCCN)C(=O)N[C@@H](CC(C)C)C(=O)N[C@@H](Cc1c[nH]cn1)C(=O)N[C@@H](CC(=O)O)C(=O)N[C@@H](Cc1c[nH]c2ccccc12)C(=O)N[C@H](C(=O)N[C@@H](CCCNC(=N)N)C(=O)N[C@@H](CCCCN)C(=O)O)[C@@H](C)O` [UGK-45] (H-LPKRLEELLQKLKSLEGSKAHEKLHDWTRK-OH; N-terminus and C-terminus assumed), the MIC is more than 20 mM. In the case of `N=C(N)NCCC[C@H](NC(=O)[C@H](Cc1c[nH]c2ccccc12)NC(=O)[C@H](Cc1c[nH]c2ccccc12)NC(=O)[C@H](CCCNC(=N)N)NC(=O)[C@H](Cc1c[nH]c2ccccc12)NC(=O)[C@H](Cc1c[nH]c2ccccc12)NC(=O)[C@H](CCCNC(=N)N)NC(=O)[C@@H](N)CCCNC(=N)N)C(=O)O` [Peptide 8P-1, reference compound] (H-RRWWRWWR-OH; N-terminus and C-terminus assumed) it was more than 20 mM.
